{"source": "the supplement of paper PMC8882468", "assay_in_all_cases": "CTG-3D luminescence at 96 h relative to day-0 seeding control (ratio to day 0); higher = more growth / less cytotoxicity; PDxO 3D drug screen (set 2), 96 h, CTG-3D normalised to day-0 seeding control.", "key": {"HCI-001": {"tested_on": "HCI-001 (organoid from a triple-negative breast cancer xenograft)"}, "HCI-015": {"tested_on": "HCI-015 (organoid from a triple-negative breast cancer xenograft)"}, "HCI-010": {"tested_on": "HCI-010 (organoid from a breast cancer xenograft)"}}}
{"smiles": "CO[C@H]1C[C@@H]2CC[C@@H](C)[C@@](O)(O2)C(=O)C(=O)N2CCCC[C@H]2C(=O)O[C@H]([C@H](C)C[C@@H]2CC[C@@H](O)[C@H](OC)C2)CC(=O)[C@H](C)/C=C(\\C)[C@@H](O)[C@@H](OC)C(=O)[C@H](C)C[C@H](C)/C=C/C=C/C=C/1C", "note": "[rapamycin]", "values": [{"measurement": "CTG-3D luminescence at 96 h", "setting": "HCI-001; 10 µM, days in culture: 397", "result": 1.87}, {"measurement": "CTG-3D luminescence at 96 h", "setting": "HCI-001; 10 µM, days in culture: 401", "result": 1.23}, {"measurement": "CTG-3D luminescence at 96 h", "setting": "HCI-001; 100 µM, days in culture: 365", "result": 0.0179}, {"measurement": "CTG-3D luminescence at 96 h", "setting": "HCI-001; 100 µM, days in culture: 397", "result": 0.017}, {"measurement": "CTG-3D luminescence at 96 h", "setting": "HCI-001; 100 µM, days in culture: 401", "result": 0.00642}, {"measurement": "CTG-3D luminescence at 96 h", "setting": "HCI-001; 625 fM, days in culture: 365", "result": 1.4}, {"measurement": "CTG-3D luminescence at 96 h", "setting": "HCI-001; 625 fM, days in culture: 397", "result": 1.1}, {"measurement": "CTG-3D luminescence at 96 h", "setting": "HCI-001; 625 fM, days in culture: 401", "result": 0.961}, {"measurement": "CTG-3D luminescence at 96 h", "setting": "HCI-015; 12.5 pM, days in culture: 333", "result": 1.29}, {"measurement": "CTG-3D luminescence at 96 h", "setting": "HCI-015; 12.5 pM, days in culture: 355", "result": 1.27}, {"measurement": "CTG-3D luminescence at 96 h", "setting": "HCI-015; 12.5 pM, days in culture: 369", "result": 1.79}, {"measurement": "CTG-3D luminescence at 96 h", "setting": "HCI-015; 0.00025 µM, days in culture: 333", "result": 0.897}, {"measurement": "CTG-3D luminescence at 96 h", "setting": "HCI-015; 0.00025 µM, days in culture: 355", "result": 2.02}, {"measurement": "CTG-3D luminescence at 96 h", "setting": "HCI-015; 0.00025 µM, days in culture: 369", "result": 1.03}, {"measurement": "CTG-3D luminescence at 96 h", "setting": "HCI-015; 0.005 µM, days in culture: 333", "result": 0.593}, {"measurement": "CTG-3D luminescence at 96 h", "setting": "HCI-015; 0.005 µM, days in culture: 355", "result": 0.979}, {"measurement": "CTG-3D luminescence at 96 h", "setting": "HCI-015; 0.005 µM, days in culture: 369", "result": 1.2}, {"measurement": "CTG-3D luminescence at 96 h", "setting": "HCI-015; 0.1 µM, days in culture: 333", "result": 1.1}, {"measurement": "CTG-3D luminescence at 96 h", "setting": "HCI-015; 0.1 µM, days in culture: 355", "result": 1.55}, {"measurement": "CTG-3D luminescence at 96 h", "setting": "HCI-015; 0.1 µM, days in culture: 369", "result": 1.39}, {"measurement": "CTG-3D luminescence at 96 h", "setting": "HCI-015; 1 µM, days in culture: 333", "result": 0.612}, {"measurement": "CTG-3D luminescence at 96 h", "setting": "HCI-015; 1 µM, days in culture: 355", "result": 1.15}, {"measurement": "CTG-3D luminescence at 96 h", "setting": "HCI-015; 1 µM, days in culture: 369", "result": 1.48}, {"measurement": "CTG-3D luminescence at 96 h", "setting": "HCI-015; 10 µM, days in culture: 333", "result": 0.447}, {"measurement": "CTG-3D luminescence at 96 h", "setting": "HCI-015; 10 µM, days in culture: 355", "result": 1.05}, {"measurement": "CTG-3D luminescence at 96 h", "setting": "HCI-015; 10 µM, days in culture: 369", "result": 0.955}, {"measurement": "CTG-3D luminescence at 96 h", "setting": "HCI-015; 100 µM, days in culture: 333", "result": 0.0119}, {"measurement": "CTG-3D luminescence at 96 h", "setting": "HCI-015; 100 µM, days in culture: 355", "result": 0.0149}, {"measurement": "CTG-3D luminescence at 96 h", "setting": "HCI-015; 100 µM, days in culture: 369", "result": 0.00715}, {"measurement": "CTG-3D luminescence at 96 h", "setting": "HCI-015; 625 fM, days in culture: 333", "result": 1.04}, {"measurement": "CTG-3D luminescence at 96 h", "setting": "HCI-015; 625 fM, days in culture: 355", "result": 1.06}, {"measurement": "CTG-3D luminescence at 96 h", "setting": "HCI-015; 625 fM, days in culture: 369", "result": 1.62}, {"measurement": "CTG-3D luminescence at 96 h", "setting": "HCI-010; 12.5 pM, days in culture: 79", "result": 1.09}, {"measurement": "CTG-3D luminescence at 96 h", "setting": "HCI-010; 12.5 pM, days in culture: 86", "result": 1.91}, {"measurement": "CTG-3D luminescence at 96 h", "setting": "HCI-010; 12.5 pM, days in culture: 102", "result": 0.91}, {"measurement": "CTG-3D luminescence at 96 h", "setting": "HCI-010; 12.5 pM, days in culture: 164", "result": 1.39}, {"measurement": "CTG-3D luminescence at 96 h", "setting": "HCI-010; 0.00025 µM, days in culture: 79", "result": 1.02}, {"measurement": "CTG-3D luminescence at 96 h", "setting": "HCI-010; 0.00025 µM, days in culture: 86", "result": 1.75}, {"measurement": "CTG-3D luminescence at 96 h", "setting": "HCI-010; 0.00025 µM, days in culture: 102", "result": 0.799}, {"measurement": "CTG-3D luminescence at 96 h", "setting": "HCI-010; 0.00025 µM, days in culture: 164", "result": 1.27}, {"measurement": "CTG-3D luminescence at 96 h", "setting": "HCI-010; 0.005 µM, days in culture: 79", "result": 1.11}, {"measurement": "CTG-3D luminescence at 96 h", "setting": "HCI-010; 0.005 µM, days in culture: 86", "result": 1.61}, {"measurement": "CTG-3D luminescence at 96 h", "setting": "HCI-010; 0.005 µM, days in culture: 102", "result": 0.831}, {"measurement": "CTG-3D luminescence at 96 h", "setting": "HCI-010; 0.005 µM, days in culture: 164", "result": 1.02}, {"measurement": "CTG-3D luminescence at 96 h", "setting": "HCI-010; 0.1 µM, days in culture: 79", "result": 1.13}, {"measurement": "CTG-3D luminescence at 96 h", "setting": "HCI-010; 0.1 µM, days in culture: 86", "result": 1.37}, {"measurement": "CTG-3D luminescence at 96 h", "setting": "HCI-010; 0.1 µM, days in culture: 102", "result": 0.806}, {"measurement": "CTG-3D luminescence at 96 h", "setting": "HCI-010; 0.1 µM, days in culture: 164", "result": 0.996}, {"measurement": "CTG-3D luminescence at 96 h", "setting": "HCI-010; 1 µM, days in culture: 79", "result": 0.996}, {"measurement": "CTG-3D luminescence at 96 h", "setting": "HCI-010; 1 µM, days in culture: 86", "result": 1.45}, {"measurement": "CTG-3D luminescence at 96 h", "setting": "HCI-010; 1 µM, days in culture: 102", "result": 0.875}, {"measurement": "CTG-3D luminescence at 96 h", "setting": "HCI-010; 1 µM, days in culture: 164", "result": 1.17}, {"measurement": "CTG-3D luminescence at 96 h", "setting": "HCI-010; 10 µM, days in culture: 79", "result": 0.98}, {"measurement": "CTG-3D luminescence at 96 h", "setting": "HCI-010; 10 µM, days in culture: 86", "result": 1.46}, {"measurement": "CTG-3D luminescence at 96 h", "setting": "HCI-010; 10 µM, days in culture: 102", "result": 0.636}, {"measurement": "CTG-3D luminescence at 96 h", "setting": "HCI-010; 10 µM, days in culture: 164", "result": 0.924}, {"measurement": "CTG-3D luminescence at 96 h", "setting": "HCI-010; 100 µM, days in culture: 79", "result": 0.00731}, {"measurement": "CTG-3D luminescence at 96 h", "setting": "HCI-010; 100 µM, days in culture: 86", "result": 0.0226}, {"measurement": "CTG-3D luminescence at 96 h", "setting": "HCI-010; 100 µM, days in culture: 102", "result": 0.00488}, {"measurement": "CTG-3D luminescence at 96 h", "setting": "HCI-010; 100 µM, days in culture: 164", "result": 0.0097}, {"measurement": "CTG-3D luminescence at 96 h", "setting": "HCI-010; 625 fM, days in culture: 79", "result": 1.13}, {"measurement": "CTG-3D luminescence at 96 h", "setting": "HCI-010; 625 fM, days in culture: 86", "result": 2.35}, {"measurement": "CTG-3D luminescence at 96 h", "setting": "HCI-010; 625 fM, days in culture: 102", "result": 0.865}, {"measurement": "CTG-3D luminescence at 96 h", "setting": "HCI-010; 625 fM, days in culture: 164", "result": 1.26}]}
